Laboratory results taken from US9975870B2, “5,6-dimethoxy-1,1-dioxobenzo[b]thiophene-2-methyloxycarbonyl (DM-Bsmoc) and related amino-protecting groups” (MASSACHUSETTS, UNIVERSITY OF, priority 2013, dated 2018).

Test: Deblocking of substituted Bsmoc p-chloroaniline (R-Bsmoc-PCA) urethanes with piperidine, 1H-NMR monitoring
Type: physicochemical
Details: for t1/2 2 eq piperidine in CDCl3 (approximate half time for the reaction of R-Bsmoc-PCA urethane and piperidine): 2 eq piperidine in CDCl3, 1H-NMR analysis, approximate values
Excerpt: As an electron-withdrawing substituent the MeSO2 group also enhances the stability of the benzo[b]thiophene-2-methyl system toward acidic reagents and in addition enhances the speed of the deblocking step. […] Tables 1A and 1B show the approximate half times for the reaction of substituted Bsmoc p-chloroaniline derivatives with 2 eq of piperidine in CDCl3 according to ^1H-NMR analysis.
Tables 1A and 1B. Approximate half times for the reaction of R-Bsmoc-PCA urethane and piperidine

## CC1=C(COC(=O)Nc2ccc(Cl)cc2)S(=O)(=O)c2ccccc21 [3-Me-Bsmoc-PCA]
  t1/2 2 eq piperidine in CDCl3 (approximate half time for the reaction of R-Bsmoc-PCA urethane and piperidine): 360 min

## COc1cc2c(cc1OC)S(=O)(=O)C(COC(=O)Nc1ccc(Cl)cc1)=C2 [5,6-MeO-Bsmoc-PCA]
  t1/2 2 eq piperidine in CDCl3 (approximate half time for the reaction of R-Bsmoc-PCA urethane and piperidine): 3 to 4 min

## Cc1ccc2c(c1)C=C(COC(=O)Nc1ccc(Cl)cc1)S2(=O)=O [5-Me-Bsmoc-PCA]
  t1/2 2 eq piperidine in CDCl3 (approximate half time for the reaction of R-Bsmoc-PCA urethane and piperidine): 6 to 7 min

## CC(=O)Nc1ccc2c(c1)C=C(COC(=O)Nc1ccc(Cl)cc1)S2(=O)=O [5-Ac—NH-Bsmoc-PCA]
  t1/2 2 eq piperidine in CDCl3 (approximate half time for the reaction of R-Bsmoc-PCA urethane and piperidine): 3 min

## CS(=O)(=O)c1ccc2c(c1)C=C(COC(=O)Nc1ccc(Cl)cc1)S2(=O)=O [5-MeSO2-Bsmoc-PCA]
  t1/2 2 eq piperidine in CDCl3 (approximate half time for the reaction of R-Bsmoc-PCA urethane and piperidine): <1 min
Treatment with piperidine in CDCl3, NMR monitoring
  speed of deblocking relative to the unsubstituted analog (Bsmoc-NHC6H4-Cl-p): about six times more readily

## O=C(Nc1ccc(Cl)cc1)OCC1=Cc2cc(Cl)ccc2S1(=O)=O [5-Cl-Bsmoc-PCA]
  t1/2 2 eq piperidine in CDCl3 (approximate half time for the reaction of R-Bsmoc-PCA urethane and piperidine): 2 min

## O=C(Nc1ccc(Cl)cc1)OCC1=Cc2cc([N+](=O)[O-])ccc2S1(=O)=O [5-NO2-Bsmoc-PCA]
  t1/2 2 eq piperidine in CDCl3 (approximate half time for the reaction of R-Bsmoc-PCA urethane and piperidine): <1 min

## O=C(Nc1ccc(Cl)cc1)OCC1=Cc2ccccc2S1(=O)=O [Bsmoc-PCA, reference compound]
  t1/2 2 eq piperidine in CDCl3 (approximate half time for the reaction of R-Bsmoc-PCA urethane and piperidine): 6 to 7 min

## O=C(Nc1ccc(Cl)cc1)OCC1=Cc2ccc(Cl)cc2S1(=O)=O [6-Cl-Bsmoc-PCA]
  t1/2 2 eq piperidine in CDCl3 (approximate half time for the reaction of R-Bsmoc-PCA urethane and piperidine): 2 min

## Cc1cccc2c1C=C(COC(=O)Nc1ccc(Cl)cc1)S2(=O)=O [4-Me-Bsmoc-PCA]
  t1/2 2 eq piperidine in CDCl3 (approximate half time for the reaction of R-Bsmoc-PCA urethane and piperidine): 150 min

## CS(=O)(=O)c1ccc2c(c1)S(=O)(=O)C(COC(=O)Nc1ccc(Cl)cc1)=C2 [6-MeSO2-Bsmoc-PCA]
  t1/2 2 eq piperidine in CDCl3 (approximate half time for the reaction of R-Bsmoc-PCA urethane and piperidine): <1 min
